Assay results as given in US20260102383A1, “LPAR1 Inhibitors” (AbbVie Inc., priority 2024, published 2026).
pIC50: −log10 of the molar value.

molecular target: T1, human LPAR1 (Homo sapiens, UniProt Q92633); assay: Arrestin assay (Arrestin Reporter EDG2-bla U2OS), inhibition of LPA-stimulated signal; assay type: cell-based; conditions: TangoEDG2-bla U2OS cells expressing human LPAR1; 0.25 μM LPA; read-out: Arrestin Reporter EDG2-bla U2OS Human IC50
T1 construct: host or cells: TangoEDG2-bla U2OS cells
Outline: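 IC50 comes from a variable-slope 4-parameter fit of % inhibition, calculated from the beta-lactamase FRET ratio (emission 460/530 nm, excitation 409 nm, 2 h development at RT). Compounds, 10 μM down to 0.00006 μM in 3-fold steps, were given 1 h before 0.25 μM final LPA for 3 h in TangoEDG2-bla U2OS cells.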

T1 sequence (Q92633 whole entry): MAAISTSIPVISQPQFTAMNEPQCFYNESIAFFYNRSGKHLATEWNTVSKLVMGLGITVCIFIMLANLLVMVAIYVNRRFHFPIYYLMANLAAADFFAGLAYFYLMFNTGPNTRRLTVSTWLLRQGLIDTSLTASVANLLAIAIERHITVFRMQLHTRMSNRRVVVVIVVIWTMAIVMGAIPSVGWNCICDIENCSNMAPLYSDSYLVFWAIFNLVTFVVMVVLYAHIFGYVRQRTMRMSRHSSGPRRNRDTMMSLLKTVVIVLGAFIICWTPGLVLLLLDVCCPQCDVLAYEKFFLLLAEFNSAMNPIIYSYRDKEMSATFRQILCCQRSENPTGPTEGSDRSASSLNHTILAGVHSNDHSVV

SMILES	pIC50
COC[C@@H](CN1CCC(C(=O)Nc2ccc(Cl)cc2OC(F)F)(n2ncc(F)c2C(C)C)CC1)C(=O)O [Compound 169, (2R)-2-[[4-[[4-chloro-2-(difluoromethoxy)phenyl]carbamoyl]-4-(4-fluoro-5-isopropyl-pyrazol-1-yl)-1-piperidyl]methyl]-3-methoxy-propanoic acid]	7.58

same assay, conditions: TangoEDG2-bla U2OS cells expressing human LPAR1; 0.25 μM LPA; read-out: Arrestin Reporter EDG2-bla U2OS Human Merged IC50

SMILES	pIC50
CC(C)c1ccnn1C1(C(=O)Nc2ccc(Cl)cc2OC(F)F)CCN(C[C@@H](C(=O)O)N2C[C@H](C)O[C@@H](C)C2)CC1 [Compound 167, (2S)-3-[4-[[4-chloro-2-(difluoromethoxy)phenyl]carbamoyl]-4-(5-isopropylpyrazol-1-yl)-1-piperidyl]-2-[(2S,6S)-2,6-dimethylmorpholin-4-yl]propanoic acid]	6.97
CC(C)c1ccnn1C1(C(=O)Nc2ccc(Cl)cc2OC(F)F)CCN(C[C@@H](CC#N)C(=O)O)CC1 [Compound 168, (2R)-2-[[4-[[4-chloro-2-(difluoromethoxy)phenyl]carbamoyl]-4-(5-isopropylpyrazol-1-yl)-1-piperidyl]methyl]-3-cyano-propanoic acid]	7.54
CC(C)c1ccnn1C1(C(=O)Nc2ccc(Cl)cc2OC(F)F)CCN(CC(C(=O)O)C2CCOC(C)(C)C2)CC1 (stereo not shown) [Compound 171, 3-[4-[[4-chloro-2-(difluoromethoxy)phenyl]carbamoyl]-4-(5-isopropylpyrazol-1-yl)-1-piperidyl]-2-(2,2-dimethyltetrahydropyran-4-yl)propanoic acid]	7.03
CC(C)c1ccnn1C1(C(=O)Nc2ccc(Cl)cc2OC(F)F)CCN(C[C@@]2(C(=O)O)CCOC(C)(C)C2)CC1 [Compound 172, (4R)-4-[[4-[[4-chloro-2-(difluoromethoxy)phenyl]carbamoyl]-4-(5-isopropylpyrazol-1-yl)-1-piperidyl]methyl]-2,2-dimethyl-tetrahydropyran-4-carboxylic acid]	7.15
CC(C)c1ccnn1C1(C(=O)Nc2ccc(Cl)cc2OC(F)F)CCN(C[C@]2(C(=O)O)CCOC(C)(C)C2)CC1 [Compound 173, (4S)-4-[[4-[[4-chloro-2-(difluoromethoxy)phenyl]carbamoyl]-4-(5-isopropylpyrazol-1-yl)-1-piperidyl]methyl]-2,2-dimethyl-tetrahydropyran-4-carboxylic acid]	7.51
CC(C)c1ccnn1C1(C(=O)Nc2ccc(Cl)cc2OC(F)F)CCN(C[C@]2(C(=O)O)CC[C@](C)(O)CC2)CC1 [Compound 175, (1r,4r)-1-[[4-[[4-chloro-2-(difluoromethoxy)phenyl]carbamoyl]-4-(5-isopropylpyrazol-1-yl)-1-piperidyl]methyl]-4-hydroxy-4-methyl-cyclohexanecarboxylic acid]	6.91
CC1(C)OCc2cnn(C3(C(=O)Nc4ccc(Cl)cc4OC(F)F)CCN(C[C@H](C(=O)O)C4CCOCC4)CC3)c21 [Compound 176, (2R)-3-[4-[[4-chloro-2-(difluoromethoxy)phenyl]carbamoyl]-4-(6,6-dimethyl-4H-furo[3,4-c]pyrazol-1-yl)-1-piperidyl]-2-tetrahydropyran-4-yl-propanoic acid]	7.02
CC(C)c1ccnn1C1(C(=O)Nc2ccc(Cl)cc2OC(F)F)CCN(CC2(C(=O)O)[C@@H]3COC[C@@H]32)CC1 (stereo partly drawn) [Compound 177, (1S,5R)-6-[[4-[[4-chloro-2-(difluoromethoxy)phenyl]carbamoyl]-4-(5-isopropylpyrazol-1-yl)-1-piperidyl]methyl]-3-oxabicyclo[3.1.0]hexane-6-carboxylic acid]	7.03
COC1CN([C@@H](CN2CCC(C(=O)Nc3ccc(Cl)cc3OC(F)F)(n3nccc3C(C)C)CC2)C(=O)O)C1 [Compound 178, (2S)-3-[4-[[4-chloro-2-(difluoromethoxy)phenyl]carbamoyl]-4-(5-isopropylpyrazol-1-yl)-1-piperidyl]-2-(3-methoxyazetidin-1-yl)propanoic acid]	6.91
